{
  "source": "patent US20090088380A1",
  "about": "“GHRH ANALOGS AND THERAPEUTIC USES THEREOF” (priority 2007, published 2009)",
  "key": {"in vivo": {"assay": "in vivo", "conditions": "Sprague-Dawley, rat", "procedure": "No mortality, adverse clinical sign, effects on body weight, food consumption, opthalmology, haematology, coagulation, clinical chemistry, urinalysis, organ weights, macroscopic or microscopic observations were noted following the dosing or recovery periods. The no adverse effect level for this study was determined to be 3 mg/kg body weight."}, "[1]": {"system": "malnourished subjects with CKD", "assay": "Phase II CKD: 24-hour urine collection, creatinine and urea clearance, GFR, PNA", "assay_type": "in vivo, human", "conditions": "for Creatinine (24-hour urine): mean (SD) / Creatinine clearance: median / GFR: median / Urea (24-hour urine): mean (SD) / Urea clearance: mean (SD) / nPNA: mean (SD): ITT population", "procedure": "Subjects collected 24-hour urine samples at screening, baseline (Days 0 to 1) and Days 28 to 29. All of the samples were analysed for creatinine and urea clearance (mL/min). The samples collected at baseline and on Day 28 were also analysed for proteinuria (Coumassie method), PNA, sodium, potassium, chloride, calcium and phosphate. GFR was calculated using the Cockcroft-Gault formula: […]"}, "[2]": {"system": "IGF-1, IGFBP-1 and IGFBP-3", "assay": "Phase II CKD: total IGF-1, IGFBP-1 and IGFBP-3", "assay_type": "in vivo, human", "conditions": "day 42"}, "[3]": {"system": "malnourished subjects with CKD", "assay": "Phase II CKD: dietary assessment (spontaneous nutrient intake)", "assay_type": "in vivo, human", "conditions": "ITT", "procedure": "Dietary assessments were performed at the baseline visit and were repeated on Day 28. The subjects were asked to write down everything they ate and drank throughout the 3 days preceding the visit. The local dietician then calculated the mean amount of carbohydrates, fat and protein consumed by the subjects per day and calculated energy intake."}, "human GHRH receptor": {"target": "T1, human GHRH receptor (Homo sapiens, UniProt Q02643)", "T1 construct": "expressed in transfected cells; host or cells: BHK (baby hamster kidney) 570 cells, membrane preparations", "T1 sequence (Q02643 23-423)": "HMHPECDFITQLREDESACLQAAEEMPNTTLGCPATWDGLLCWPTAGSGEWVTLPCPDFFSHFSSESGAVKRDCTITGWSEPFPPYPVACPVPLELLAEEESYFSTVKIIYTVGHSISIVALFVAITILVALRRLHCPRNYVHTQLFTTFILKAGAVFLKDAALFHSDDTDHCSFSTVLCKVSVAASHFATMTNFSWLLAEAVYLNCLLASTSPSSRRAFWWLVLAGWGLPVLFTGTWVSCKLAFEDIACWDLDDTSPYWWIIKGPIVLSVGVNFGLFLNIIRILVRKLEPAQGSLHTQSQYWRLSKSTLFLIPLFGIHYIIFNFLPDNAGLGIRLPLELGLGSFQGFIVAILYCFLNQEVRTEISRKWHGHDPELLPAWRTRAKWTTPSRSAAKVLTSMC", "assay": "125I-GHRH competitive binding assay in BHK cell membrane preparations", "conditions": "in comparison with hGHRH(1-29)NH2, ratio IC50 hGHRH(1-29)-NH2/IC50 analog", "procedure": "Non specific binding was determined in presence of 1 μM hGHRH(1-29)NH2. Incubation was carried out at equilibrium (23° C., 60 min) and stopped by centrifugation (12,000 g, 5 min, at 4° C.). The radioactivity content in pellets was determined by gamma counting. The affinity of hGHRH(1-29) NH2 was tested in each experiment to assess the validity of the assay and determine the relative affinity of the analogs.\nValues represent the mean±SEM of 3 experiments performed in triplicate for the analogs and the mean±SEM of 2 experiments performed in triplicate for hGHRH(1-44) NH2.\nFor the binding assay results presented in Tables 8 to 11, values represent the mean±SEM of 8 independent experiments performed in triplicate for the analogs and the mean±SEM of 4 experiments performed in triplicate for hGHRH(1-29)NH2. […] The relative affinity was obtained by taking the ratio IC50 of hGHRH (1-29)-NH2/IC50 analog."}, "[4]": {"assay": "In vitro proteolysis assay in rat serum", "assay_type": "in vitro ADME", "experimental": "Proteolysis was stopped by adding 800 μl of ice-cold stop buffer (potassium-phosphate buffer, acidified to pH 0.8 with trifluoroacetic acid (TFA) and boiling 5 min (rat serum only). After centrifugation (12000 g, 5 min, 4° C.) (rat serum only), serum-peptide mixtures were passed through a conditioned Sep-Pak C-18 cartridge to extract native GHRH or a GHRH analog residual concentrations from serum proteins. The native GHRH or the analog was eluted in 2 ml of 50% acetonitrile-0.01% TFA/50% 0.01% aqueous TFA. 200 μl of extracted peptide, representing 1 μg of GHRH or analog at time 0, was quantified by analytical HPLC, using one μ-Bondapak C18 column (10 μm particle size, 0.39×15 cm) (rat serum) or two C18 columns in series (human serum and plasma) and a binary solvent system composed of NaClO4 0.01 M, pH 2.5 and acetonitrile. A linear gradient from 30 to 60% acetonitrile over 45 min (rat serum) or 30 to 50% (human serum and plasma) was used. Elution of intact peptide was monitored at 214 nm and residual concentration determined by assessment of peak surface areas."}, "[5]": {"conditions": "GHRH vs placebo, Day 28, ANOVA for repeated measures"}, "[6]": {"conditions": "Baseline, listed as GHRH(1-29)NH2 synthetic analog"}, "[7]": {"conditions": "Day 28, listed as GHRH(1-29)NH2 synthetic analog"}},
  "note": "Values joined by “and” are separate entries in the source; they are usually repeats but may differ in a detail not shown here. Equal values may be shown once. Non-standard residues stand in square brackets, D forms with d. Residues, ends and D or L forms follow the SMILES beside them.",
  "data": [
    {"smiles": "CC[C@H](C)[C@H](NC(=O)[C@H](C)NC(=O)[C@H](CC(=O)O)NC(=O)[C@@H](C)NC(=O)[C@@H](N)Cc1ccc(O)cc1)C(=O)N[C@@H](Cc1ccccc1)C(=O)N[C@H](C(=O)N[C@@H](CC(N)=O)C(=O)N[C@@H](CO)C(=O)N[C@H](Cc1ccc(O)cc1)C(=O)N[C@@H](CCCNC(=N)N)C(=O)N[C@@H](CCCCN)C(=O)N[C@H](C(=O)N[C@@H](CC(C)C)C(=O)N[C@H](C)C(=O)N[C@@H](CCC(N)=O)C(=O)N[C@@H](CC(C)C)C(=O)N[C@@H](CO)C(=O)N[C@@H](C)C(=O)N[C@@H](CCCNC(=N)N)C(=O)N[C@@H](CCCCN)C(=O)N[C@@H](CCCCN)C(=O)N[C@@H](CC(C)C)C(=O)N[C@@H](CCC(N)=O)C(=O)N[C@@H](CC(=O)O)C(=O)N[C@H](C(=O)N[C@@H](CCSC)C(=O)N[C@@H](CO)C(=O)N[C@@H](CCCNC(=N)N)C(N)=O)[C@@H](C)CC)C(C)C)[C@@H](C)O", "note": "[GHRH analog #5, [D-Ala^2, D-Tyr^10, D-Ala^15, Lys^22] hGHRH(1-29)-NH2] (H-Y[dA]DAIFTNS[dY]RKVL[dA]QLSARKKLQDIMSR-NH2)", "values": [
      {"measurement": "NOAEL at 672 h", "setting": "in vivo", "value": 3, "unit": "mg/kg"},
      {"measurement": "Creatinine (24-hour urine): mean (SD)", "setting": "[1]; Baseline", "value": "10.44 (5.10) mmol/24 hours"},
      {"measurement": "Creatinine clearance: median", "setting": "[1]; Baseline", "value": 24.92, "unit": "mL/min/1.73 m^−2"},
      {"measurement": "GFR: median", "setting": "[1]; Baseline", "value": 19.37, "unit": "ml/min/1.73 m^−2"},
      {"measurement": "Urea (24-hour urine): mean (SD)", "setting": "[1]; Baseline", "value": "343.53 (170.39) mmol/24 hours"},
      {"measurement": "Urea clearance: mean (SD)", "setting": "[1]; Baseline", "value": "11.858 (5.820) mL/min/1.73 m^−2"},
      {"measurement": "nPNA: mean (SD)", "setting": "[1]; Baseline", "value": "2.3648 (1.1530) g/kg body weight/24 h"},
      {"measurement": "Mean urea clearance rate", "setting": "[1]; Day 28", "value": 11.24, "unit": "mL/min/1.73 m^−2"},
      {"measurement": "Median GFR", "setting": "[1]; Day 28", "value": 18.23, "unit": "mL/min/1.73 m^−2"},
      {"measurement": "Median creatinine clearance", "setting": "[1]; Day 28", "value": 23.78, "unit": "mL/min/1.73 m^−2"},
      {"measurement": "Creatinine (24-hour urine): mean (SD)", "setting": "[1]; Day 28", "value": "9.68 (3.29) mmol/24 hours"},
      {"measurement": "Creatinine clearance: median", "setting": "[1]; Day 28", "value": 23.78, "unit": "mL/min/1.73 m^−2"},
      {"measurement": "GFR: median", "setting": "[1]; Day 28", "value": 18.23, "unit": "ml/min/1.73 m^−2"},
      {"measurement": "Urea (24-hour urine): mean (SD)", "setting": "[1]; Day 28", "value": "235.87 (88.51) mmol/24 hours"},
      {"measurement": "Urea clearance: mean (SD)", "setting": "[1]; Day 28", "value": "11.244 (4.200) mL/min/1.73 m^−2"},
      {"measurement": "nPNA: mean (SD)", "setting": "[1]; Day 28", "value": "1.6198 (0.5892) g/kg body weight/24 h"},
      {"measurement": "Urea clearance: adjusted difference or comparison", "setting": "[1]; [5]", "value": 2.28, "unit": "mL/min/1.73 m^−2"},
      {"measurement": "nPNA: adjusted difference or comparison", "setting": "[1]; [5]", "value": "−0.553", "unit": "g/kg body weight/24 h"},
      {"measurement": "nPNA: mean value", "setting": "[1]; after decrease (day 28)", "value": 1.6198, "unit": "g/kg body weight/24 h"},
      {"measurement": "Mean urea clearance rate", "setting": "[1]; baseline", "value": 11.86, "unit": "mL/min/1.73 m^−2"},
      {"measurement": "Median GFR", "setting": "[1]; baseline", "value": 19.37, "unit": "mL/min/1.73 m^−2"},
      {"measurement": "Median creatinine clearance", "setting": "[1]; baseline", "value": 24.92, "unit": "mL/min/1.73 m^−2"},
      {"measurement": "nPNA: mean value", "setting": "[1]; before decrease (baseline)", "value": 2.3648, "unit": "g/kg body weight/24 h"},
      {"measurement": "Urea clearance: adjusted mean difference between GHRH and placebo arm", "setting": "[1]; day 28", "value": 2.28, "unit": "ml/min/1.73 m^2"},
      {"measurement": "nPNA: adjusted mean difference between GHRH and placebo arm", "setting": "[1]; day 28", "value": "−0.553", "unit": "g/kg body weight/24 h"},
      {"measurement": "GFR: improvement against baseline, one patient", "setting": "[1]; one patient", "value": 78.56, "unit": "%"},
      {"measurement": "Creatinine clearance: improvement against baseline, individual patients", "setting": "[1]; two patients", "value": "124.63% and 115.65%"},
      {"measurement": "Urea clearance: improvement against baseline, individual patients", "setting": "[1]; two patients, listed as GHRH(1-29)NH2 synthetic analog", "value": "123.99% and 103.49%"},
      {"measurement": "Median IGF-1 after treatment discontinuation", "setting": "[2]", "value": 368.2, "unit": "ng/mL"},
      {"measurement": "Energy intake: mean (SD)", "setting": "[3]; Baseline", "value": "1654 kcal/day and 1654.45 (394.75) kcal/day"},
      {"measurement": "Protein intake: mean (SD)", "setting": "[3]; Baseline", "value": "62.46 g/day and 62.46 (17.71) g/day"},
      {"measurement": "Energy intake: mean (SD)", "setting": "[3]; [6]", "value": 1654.5, "unit": "kcal/day"},
      {"measurement": "Protein intake: mean (SD)", "setting": "[3]; [6]", "value": 62.5, "unit": "g/day"},
      {"measurement": "Energy intake: mean (SD)", "setting": "[3]; Day 28", "value": "1533 kcal/day and 1532.70 (384.52) kcal/day"},
      {"measurement": "Protein intake: mean (SD)", "setting": "[3]; Day 28", "value": "58.49 g/day and 58.49 (19.76) g/day"},
      {"measurement": "Energy intake: mean (SD)", "setting": "[3]; [7]", "value": 1532.7, "unit": "kcal/day"},
      {"measurement": "Protein intake: mean (SD)", "setting": "[3]; [7]", "value": 58.5, "unit": "g/day"},
      {"measurement": "Relative binding affinity (R1) in hGHRH-R BHK-expressing cells", "setting": "human GHRH receptor; listed as 5", "value": "939 ± 249"},
      {"measurement": "Relative binding affinity (R1) in hGHRH-R BHK-expressing cells", "setting": "human GHRH receptor; listed as GHRH analog # 5", "value": "939 ± 249"},
      {"measurement": "Relative binding affinity (R1) in hGHRH-R BHK-expressing cells", "setting": "human GHRH receptor; listed as GHRH(1-29)NH2 synthetic analog", "value": 939},
      {"measurement": "Relative resistance to proteolysis in vitro", "setting": "[4]; compared to hGHRH(1-29)-NH2", "value": 3.13},
      {"measurement": "Residual concentration (% of initial concentration)", "setting": "[4]; incubation 0 min", "value": "100 ± 0 % of initial concentration"}
    ]}
  ]
}
